Test results published in the NIST ThermoML archive (doi:10.1021/acs.jced.7b00106).
Where “and” joins values, the source holds several entries; their conditions need not be identical. Identical values can stand only once.

Conditions: Hot wire method

FC(F)(F)/C=C/Cl [(E)-1-chloro-3,3,3-trifluoroprop-1-ene]
Conditions | thermal conductivity
403.42 K, 5979 kPa, Liquid | 0.05892 W/m/K
403.43 K, 18618 kPa, Liquid | 0.06817 W/m/K
403.44 K, 18637 kPa, Liquid | 0.06808 W/m/K
403.48 K, 4696 kPa, Liquid | 0.0577 W/m/K
403.48 K, 4700 kPa, Liquid | 0.05772 W/m/K
403.49 K, 9102 kPa, Liquid | 0.06156 W/m/K
403.49 K, 9108 kPa, Liquid | 0.06159 W/m/K
403.53 K, 3569 kPa, Liquid | 0.05653 W/m/K
403.54 K, 3575 kPa, Liquid | 0.05665 W/m/K
403.54 K, 15778 kPa, Liquid | 0.06628 W/m/K
403.54 K, 15782 kPa, Liquid | 0.06631 W/m/K
403.58 K, 7083 kPa, Liquid | 0.05991 W/m/K
403.58 K, 7093 kPa, Liquid | 0.05996 W/m/K
403.59 K, 2636 kPa, Liquid | 0.0556 W/m/K
403.6 K, 2641 kPa, Liquid | 0.05565 W/m/K
420.8 K, 2579 kPa, Fluid (supercritical or subcritical phases) | 0.02548 W/m/K
420.81 K, 2579 kPa, Fluid (supercritical or subcritical phases) | 0.02537 W/m/K
420.9 K, 2520 kPa, Fluid (supercritical or subcritical phases) | 0.02499 W/m/K and 0.02461 W/m/K
420.92 K, 2579 kPa, Fluid (supercritical or subcritical phases) | 0.02548 W/m/K and 0.02551 W/m/K
421 K, 2520 kPa, Fluid (supercritical or subcritical phases) | 0.02479 W/m/K
421.01 K, 2519 kPa, Fluid (supercritical or subcritical phases) | 0.0248 W/m/K
421.03 K, 2579 kPa, Fluid (supercritical or subcritical phases) | 0.02568 W/m/K
421.04 K, 2579 kPa, Fluid (supercritical or subcritical phases) | 0.02548 W/m/K
421.11 K, 2519 kPa, Fluid (supercritical or subcritical phases) | 0.02483 W/m/K
421.11 K, 2520 kPa, Fluid (supercritical or subcritical phases) | 0.02479 W/m/K
421.15 K, 2469 kPa, Fluid (supercritical or subcritical phases) | 0.02425 W/m/K and 0.02441 W/m/K
421.16 K, 2579 kPa, Fluid (supercritical or subcritical phases) | 0.02588 W/m/K
421.16 K, 2580 kPa, Fluid (supercritical or subcritical phases) | 0.02588 W/m/K
421.21 K, 2403 kPa, Fluid (supercritical or subcritical phases) | 0.02382 W/m/K
421.24 K, 2520 kPa, Fluid (supercritical or subcritical phases) | 0.02505 W/m/K
421.25 K, 2307 kPa, Fluid (supercritical or subcritical phases) | 0.02316 W/m/K and 0.02317 W/m/K
421.25 K, 2520 kPa, Fluid (supercritical or subcritical phases) | 0.02484 W/m/K
421.29 K, 2203 kPa, Fluid (supercritical or subcritical phases) | 0.02266 W/m/K
421.29 K, 2204 kPa, Fluid (supercritical or subcritical phases) | 0.02272 W/m/K
421.29 K, 2468 kPa, Fluid (supercritical or subcritical phases) | 0.02448 W/m/K
421.3 K, 2469 kPa, Fluid (supercritical or subcritical phases) | 0.02444 W/m/K
421.32 K, 2099 kPa, Fluid (supercritical or subcritical phases) | 0.02221 W/m/K
421.33 K, 2099 kPa, Fluid (supercritical or subcritical phases) | 0.02225 W/m/K
421.35 K, 2403 kPa, Fluid (supercritical or subcritical phases) | 0.02395 W/m/K and 0.02391 W/m/K
421.36 K, 1997 kPa, Fluid (supercritical or subcritical phases) | 0.02198 W/m/K and 0.02199 W/m/K
421.39 K, 2307 kPa, Fluid (supercritical or subcritical phases) | 0.02322 W/m/K
421.39 K, 2519 kPa, Fluid (supercritical or subcritical phases) | 0.02527 W/m/K
421.39 K, 2520 kPa, Fluid (supercritical or subcritical phases) | 0.02527 W/m/K
421.4 K, 1861 kPa, Fluid (supercritical or subcritical phases) | 0.0216 W/m/K
421.4 K, 1862 kPa, Fluid (supercritical or subcritical phases) | 0.02165 W/m/K
421.44 K, 1724 kPa, Fluid (supercritical or subcritical phases) | 0.02132 W/m/K
421.44 K, 2203 kPa, Fluid (supercritical or subcritical phases) | 0.02269 W/m/K
421.44 K, 2469 kPa, Fluid (supercritical or subcritical phases) | 0.02473 W/m/K and 0.02459 W/m/K
421.45 K, 1723 kPa, Fluid (supercritical or subcritical phases) | 0.02131 W/m/K
421.45 K, 2204 kPa, Fluid (supercritical or subcritical phases) | 0.02274 W/m/K
421.48 K, 2100 kPa, Fluid (supercritical or subcritical phases) | 0.02256 W/m/K and 0.02228 W/m/K
421.51 K, 2403 kPa, Fluid (supercritical or subcritical phases) | 0.02407 W/m/K and 0.02398 W/m/K
421.52 K, 1998 kPa, Fluid (supercritical or subcritical phases) | 0.02205 W/m/K and 0.02199 W/m/K
421.53 K, 1561 kPa, Fluid (supercritical or subcritical phases) | 0.02097 W/m/K
421.54 K, 1562 kPa, Fluid (supercritical or subcritical phases) | 0.02106 W/m/K
421.56 K, 2307 kPa, Fluid (supercritical or subcritical phases) | 0.02344 W/m/K and 0.02334 W/m/K
421.57 K, 1862 kPa, Fluid (supercritical or subcritical phases) | 0.02171 W/m/K
421.57 K, 1863 kPa, Fluid (supercritical or subcritical phases) | 0.02167 W/m/K
421.58 K, 1402 kPa, Fluid (supercritical or subcritical phases) | 0.02076 W/m/K
421.59 K, 1402 kPa, Fluid (supercritical or subcritical phases) | 0.02091 W/m/K
421.61 K, 2204 kPa, Fluid (supercritical or subcritical phases) | 0.02283 W/m/K
421.62 K, 1724 kPa, Fluid (supercritical or subcritical phases) | 0.02136 W/m/K
421.62 K, 2203 kPa, Fluid (supercritical or subcritical phases) | 0.02292 W/m/K
421.62 K, 2616 kPa, Liquid | 0.0497 W/m/K
421.63 K, 1724 kPa, Fluid (supercritical or subcritical phases) | 0.0214 W/m/K
421.63 K, 2616 kPa, Liquid | 0.04969 W/m/K
421.64 K, 1220 kPa, Fluid (supercritical or subcritical phases) | 0.02082 W/m/K
421.64 K, 1221 kPa, Fluid (supercritical or subcritical phases) | 0.02077 W/m/K
421.66 K, 2099 kPa, Fluid (supercritical or subcritical phases) | 0.02245 W/m/K
421.66 K, 2100 kPa, Fluid (supercritical or subcritical phases) | 0.02244 W/m/K
421.67 K, 2403 kPa, Fluid (supercritical or subcritical phases) | 0.02364 W/m/K
421.68 K, 1031 kPa, Fluid (supercritical or subcritical phases) | 0.02073 W/m/K
421.68 K, 2403 kPa, Fluid (supercritical or subcritical phases) | 0.02418 W/m/K
421.69 K, 1998 kPa, Fluid (supercritical or subcritical phases) | 0.02232 W/m/K
421.7 K, 1999 kPa, Fluid (supercritical or subcritical phases) | 0.02203 W/m/K
421.71 K, 1562 kPa, Fluid (supercritical or subcritical phases) | 0.02117 W/m/K
421.72 K, 2307 kPa, Fluid (supercritical or subcritical phases) | 0.02349 W/m/K
421.74 K, 801 kPa, Fluid (supercritical or subcritical phases) | 0.0208 W/m/K
421.75 K, 1862 kPa, Fluid (supercritical or subcritical phases) | 0.02184 W/m/K
421.75 K, 1863 kPa, Fluid (supercritical or subcritical phases) | 0.02174 W/m/K
421.77 K, 1401 kPa, Fluid (supercritical or subcritical phases) | 0.02096 W/m/K
421.77 K, 1403 kPa, Fluid (supercritical or subcritical phases) | 0.02094 W/m/K
421.78 K, 3760 kPa, Liquid | 0.05136 W/m/K and 0.05147 W/m/K
421.79 K, 2203 kPa, Fluid (supercritical or subcritical phases) | 0.02296 W/m/K and 0.02299 W/m/K
421.8 K, 3309 kPa, Liquid | 0.05069 W/m/K
421.81 K, 1723 kPa, Fluid (supercritical or subcritical phases) | 0.02142 W/m/K
421.81 K, 1724 kPa, Fluid (supercritical or subcritical phases) | 0.02139 W/m/K
421.81 K, 2616 kPa, Liquid | 0.04986 W/m/K and 0.05013 W/m/K
421.81 K, 2914 kPa, Liquid | 0.05019 W/m/K and 0.05004 W/m/K
421.81 K, 3308 kPa, Liquid | 0.05077 W/m/K
421.83 K, 1221 kPa, Fluid (supercritical or subcritical phases) | 0.0209 W/m/K
421.84 K, 2100 kPa, Fluid (supercritical or subcritical phases) | 0.02258 W/m/K
421.85 K, 2099 kPa, Fluid (supercritical or subcritical phases) | 0.02249 W/m/K
421.88 K, 1030 kPa, Fluid (supercritical or subcritical phases) | 0.02077 W/m/K
421.88 K, 1033 kPa, Fluid (supercritical or subcritical phases) | 0.02075 W/m/K
421.88 K, 1998 kPa, Fluid (supercritical or subcritical phases) | 0.0222 W/m/K and 0.02217 W/m/K
421.91 K, 1563 kPa, Fluid (supercritical or subcritical phases) | 0.02121 W/m/K
421.91 K, 2306 kPa, Fluid (supercritical or subcritical phases) | 0.02366 W/m/K
421.91 K, 2307 kPa, Fluid (supercritical or subcritical phases) | 0.02365 W/m/K
421.92 K, 1563 kPa, Fluid (supercritical or subcritical phases) | 0.02116 W/m/K
421.94 K, 802 kPa, Fluid (supercritical or subcritical phases) | 0.02077 W/m/K
421.95 K, 1862 kPa, Fluid (supercritical or subcritical phases) | 0.02178 W/m/K and 0.0218 W/m/K
421.97 K, 2203 kPa, Fluid (supercritical or subcritical phases) | 0.02307 W/m/K
421.98 K, 1401 kPa, Fluid (supercritical or subcritical phases) | 0.02101 W/m/K
421.98 K, 1403 kPa, Fluid (supercritical or subcritical phases) | 0.02116 W/m/K
421.98 K, 2204 kPa, Fluid (supercritical or subcritical phases) | 0.02311 W/m/K
421.99 K, 3758 kPa, Liquid | 0.05138 W/m/K
421.99 K, 4307 kPa, Liquid | 0.05224 W/m/K
422 K, 3762 kPa, Liquid | 0.05146 W/m/K
422 K, 4305 kPa, Liquid | 0.0522 W/m/K
422.01 K, 1724 kPa, Fluid (supercritical or subcritical phases) | 0.02156 W/m/K and 0.02145 W/m/K
422.01 K, 2914 kPa, Liquid | 0.05029 W/m/K
422.01 K, 3308 kPa, Liquid | 0.05079 W/m/K
422.01 K, 3310 kPa, Liquid | 0.05082 W/m/K
422.02 K, 2616 kPa, Liquid | 0.05008 W/m/K and 0.05005 W/m/K
422.02 K, 2914 kPa, Liquid | 0.05026 W/m/K
422.03 K, 2099 kPa, Fluid (supercritical or subcritical phases) | 0.02265 W/m/K
422.04 K, 2099 kPa, Fluid (supercritical or subcritical phases) | 0.02262 W/m/K
422.06 K, 1218 kPa, Fluid (supercritical or subcritical phases) | 0.02083 W/m/K
422.06 K, 1220 kPa, Fluid (supercritical or subcritical phases) | 0.0209 W/m/K
422.08 K, 1998 kPa, Fluid (supercritical or subcritical phases) | 0.0223 W/m/K
422.1 K, 1030 kPa, Fluid (supercritical or subcritical phases) | 0.02079 W/m/K
422.1 K, 1031 kPa, Fluid (supercritical or subcritical phases) | 0.02076 W/m/K
422.12 K, 1562 kPa, Fluid (supercritical or subcritical phases) | 0.02118 W/m/K
422.16 K, 1862 kPa, Fluid (supercritical or subcritical phases) | 0.02194 W/m/K
422.16 K, 1863 kPa, Fluid (supercritical or subcritical phases) | 0.02189 W/m/K
422.18 K, 803 kPa, Fluid (supercritical or subcritical phases) | 0.0208 W/m/K
422.18 K, 4947 kPa, Liquid | 0.05308 W/m/K
422.18 K, 4948 kPa, Liquid | 0.05312 W/m/K
422.2 K, 1401 kPa, Fluid (supercritical or subcritical phases) | 0.02102 W/m/K
422.2 K, 1402 kPa, Fluid (supercritical or subcritical phases) | 0.02108 W/m/K
422.21 K, 3760 kPa, Liquid | 0.05155 W/m/K and 0.05149 W/m/K
422.21 K, 4301 kPa, Liquid | 0.05224 W/m/K
422.22 K, 4305 kPa, Liquid | 0.05226 W/m/K
422.23 K, 1723 kPa, Fluid (supercritical or subcritical phases) | 0.02155 W/m/K
422.23 K, 3307 kPa, Liquid | 0.05087 W/m/K
422.24 K, 1723 kPa, Fluid (supercritical or subcritical phases) | 0.0216 W/m/K
422.24 K, 3310 kPa, Liquid | 0.05093 W/m/K
422.25 K, 1221 kPa, Fluid (supercritical or subcritical phases) | 0.0209 W/m/K
422.25 K, 2616 kPa, Liquid | 0.05034 W/m/K
422.25 K, 2913 kPa, Liquid | 0.05043 W/m/K
422.25 K, 2914 kPa, Liquid | 0.05049 W/m/K
422.33 K, 1032 kPa, Fluid (supercritical or subcritical phases) | 0.02082 W/m/K
422.33 K, 1561 kPa, Fluid (supercritical or subcritical phases) | 0.02131 W/m/K
422.33 K, 6610 kPa, Liquid | 0.05507 W/m/K
